According to US10471043B2, “Compounds and methods of treating bacterial infections” (ULTUPHARMA AB, priority 2015, dated 2019):
In brackets after ≈: the same amount, converted by molar mass. Where two headings read alike, the source gives them in different places.

How the values were obtained:
[1] = tested on: Staphylococcus aureus strain LMG15975; test: MIC by broth micro-dilution, AM3/PBS 1:1; type: cell-based
Description: (§1) At first (Table 1), MIC is determined by broth micro-dilution method. The test medium is Antibiotic Medium 3 (AM3; Difco Ltd) mixed with Phosphate Buffered Saline (PBS) in proportions 1:1. Selected MIC values are verified using cation-adjusted Mueller Hinton Broth (MHB; BD). Cell concentration of tested pathogen is adjusted to between 3 and 5×10^5 cells per ml. To verify cell concentration of tested pathogen, viable cell counts are performed directly after each MIC-test by dilution method with PBS as a dilution solvent. Cells are counted on the agar plates with 50% strength Vegetable Peptone Broth (50% VPB; Oxoid Ltd) after 16 to 20 h of incubation at 37° C.
(§2) Cells of pathogen suspended in test medium are distributed to the wells and the plates are incubated for 16 to 20 h at 37° C. Negative controls are wells with the test medium only and positive controls are wells with the pathogen in test medium. The MIC is defined as the lowest concentration of each compound with no visible growth of pathogen.
Example compounds of formula I were examined for antibacterial activity against the Gram-positive bacterium Staphylococcus aureus strain LMG15975 using the above described method (Table 1).

Bacillus cereus = test: MIC by broth micro-dilution; type: cell-based; settings: Table 4, read-out: MIC (μg/ml) B. cereus
Description: as §1, §2

[2] = tested on: mupirocin-resistant strains of Staphylococcus aureus; test: MIC against mupirocin-resistant strains; type: cell-based
Description: as §1, §2

S. aureus = test: Antimicrobial Susceptibility Test by Broth Microdilution, M07-A9 CLSI; type: cell-based; settings: Staphylococcus aureus
S. epidermidis [3] = test: as above; type: cell-based; settings: Staphylococcus epidermidis
E. faecium = test: as above; type: cell-based; settings: Enterococcus faecium; E. faecium 7, Vancomycin-resistant, Table 5; read-out: MIC
E. faecalis = test: as above; type: cell-based; settings: Enterococcus faecalis
Serratia marescens = test: MIC panel of Gram-negative bacteria (Table 7); type: cell-based; settings: EN0454 Serratia marescens G− PKL 3692
Micrococcus luteus = test: MIC panel of Gram-negative bacteria (Table 7); type: cell-based; settings: EN0455 Micrococcus luteus G+ PKL 3693
Proteus mirabilis = test: MIC panel of Gram-negative bacteria (Table 7); type: cell-based
E. coli = test: MIC panel of Gram-negative bacteria (Table 7); type: cell-based; settings: Escherichia coli
P. aeruginosa = test: MIC panel of Gram-negative bacteria (Table 7); type: cell-based; settings: Pseudomonas aeruginosa
Enterobacter aerogenes = test: MIC panel of Gram-negative bacteria (Table 7); type: cell-based; settings: Klebsiella aerogenes; EN0461 Enterobacter aerogenes G− PKL 3706
S. epidermidis [4] = test: MIC panel of Gram-negative bacteria (Table 7); type: cell-based; settings: Staphylococcus epidermidis; EN0456 S. epidermidis G+ PKL 3694
Citrobacter sp. = test: MIC panel of Gram-negative bacteria (Table 7); type: cell-based; settings: EN0465 Citrobacter sp. G− PKL 3710
S. typhimurium = test: MIC panel of Gram-negative bacteria (Table 7); type: cell-based; settings: Salmonella enterica; EN0466 S. typhimurium G− TH6509
A. Pittii/nosocomialis = test: MIC panel of Gram-negative bacteria (Table 7); type: cell-based; settings: Acinetobacter pittii; EN0180 A. Pittii/nosocomialis G−
K. oxytoca = test: MIC panel of Gram-negative bacteria (Table 7); type: cell-based; settings: Klebsiella oxytoca; EN0392 K. oxytoca G−
K. pneumoniae = test: MIC panel of Gram-negative bacteria (Table 7); type: cell-based; settings: Klebsiella pneumoniae
A. baumanii = test: MIC panel of Gram-negative bacteria (Table 7); type: cell-based
[5] = Cytotoxicity assay, WST-8; settings: human, HepG2 cells, CC50 (μg/mL)
A. baumannii = test: MIC by broth micro-dilution; type: cell-based; settings: Acinetobacter baumannii, A. baumannii (G−), Table 2; read-out: MIC (μg/ml) A. baumannii
Description: as §1, §2

M. frederiksbergense = test: MIC by broth micro-dilution; type: cell-based; settings: Table 4; read-out: MIC (μg/ml) M. frederiksbergense
Description: as §1, §2

Mycobacterium smegmatis = test: MIC by broth micro-dilution; type: cell-based; settings: Mycolicibacterium smegmatis; Table 4; read-out: MIC (μg/ml) M. smegmatis
Description: as §1, §2

in vitro = settings: human, CC50 (μg/mL)
[6] = Kong et al 2005; cited from earlier work
Dutch Elm disease fungus = settings: Ayer & Villar 1985; cited from earlier work
Pyricularia oryziae = settings: Miyakado et al 1982; cited from earlier work
[7] = LMG15975, S. aureus LMG15975, Table 1, read-out: MIC
[8] = LMG15975, S. aureus LMG15975, Table 1, read-out: MIC (μg/ml)
[9] = LMG15975, Table 4, read-out: MIC (μg/ml) S. aureus
[10] = S. aureus V55, mupirocin-resistant
[11] = S. aureus V86, mupirocin-resistant

Question: What does the source list for CCCCCCCCCC1CC(O)=C(C(=O)CC2CCCCC2)C(=O)O1 (centres unmarked) [Ex. 14, 3-(2-cyclohexylacetyl)-4-hydroxy-6-nonyl-5,6-dihydro-2H-pyran-2-one]?
Answer: MIC ([1]; LMG15975, S. aureus LMG 15975 (SLU), Methicillin-resistant, Table 5, read-out: MIC (μg/mL)): 0.25 µg/mL; MIC [1, 7]: ≤ 0.3 µM; MIC [1, 8]: 0.25 µg/mL; MIC [1, 9]: ≤ 0.1 µg/mL; MIC (Bacillus cereus): ≤ 1 µg/mL; MIC [2, 10]: ≤0.1 µg/mL; MIC [2, 11]: ≤0.1 µg/mL; MIC ([2]; S. aureus V321, mupirocin-resistant): ≤0.1 µg/mL; MIC ([2]; Staphylococcus aureus, S. aureus V308, mupirocin-resistant, read-out: MIC): ≤ 0.1 µg/mL; MIC (S. aureus; ATCC29213, S. aureus ATCC29213, QC strain, Table 5): 2 µg/mL (≈ 5.49 µM); MIC (S. aureus; S. aureus 7280, Methicillin-resistant): 2 µg/mL (≈ 5.49 µM); MIC (S. aureus; S. aureus MO17, Methicillin-sensitive, Table 5): 1 µg/mL (≈ 2.74 µM); MIC (S. aureus; S. aureus PICI, Methicillin-resistant, Table 5): 1 µg/mL (≈ 2.74 µM); MIC (S. epidermidis [3]; S. epidermis RO7, Methicillin-sensitive, Table 5): 0.5 µg/mL (≈ 1.37 µM); MIC (S. epidermidis [3]; S. epidermis Staph 1, Methicillin-resistant): 0.5 µg/mL (≈ 1.37 µM); MIC (S. epidermidis [3]; S. epidermis TA12, Methicillin-resistant, Table 5): 0.5 µg/mL (≈ 1.37 µM); MIC (E. faecium): 1 µg/mL (≈ 2.74 µM); MIC (E. faecalis; E. faecalis 14, Vancomycin-resistant): 1 µg/mL (≈ 2.74 µM); MIC (E. faecalis; E. faecalis 24, Vancomycin-sensitive, Table 5): 1 µg/mL (≈ 2.74 µM); MIC (Serratia marescens): > 64 µg/mL; MIC (Micrococcus luteus): 0.5 µg/mL (≈ 1.37 µM); MIC (Proteus mirabilis; EN0445 P. mirabilis ST19 G−): >64 µg/mL; MIC (Proteus mirabilis; EN0457 Proteus mirabilis G− PKL 3695, read-out: MIC): > 64 µg/mL; MIC (E. coli; EN001 E. coli WT, ENABLE Primary MIC panel): > 64 µg/mL; MIC (E. coli; EN002 E. coli DtolC, ENABLE Primary MIC panel): > 64 µg/mL; MIC (E. coli; EN003 E. coli D22 (lps mut), ENABLE Primary MIC panel): > 64 µg/mL; MIC (E. coli; EN0012 E. coli, ENABLE L2C MIC panel): > 64 µg/mL; MIC (E. coli; EN0013 E. coli Del-tolC, ENABLE L2C MIC panel): 16 µg/mL (≈ 43.9 µM); MIC (E. coli; EN0458 E. coli B G− PKL 3698): > 64 µg/mL; MIC (P. aeruginosa; EN004 P. aeruginosa WT, ENABLE Primary MIC panel): > 64 µg/mL; MIC (P. aeruginosa; EN005 P. aeruginosa Efflux mut, ENABLE Primary MIC panel): > 64 µg/mL; MIC (P. aeruginosa; EN0014 P. aeruginosa, ENABLE L2C MIC panel): > 64 µg/mL; MIC (P. aeruginosa; EN0015 P. aeruginosa Efflux mut, ENABLE L2C MIC panel): > 64 µg/mL; MIC (P. aeruginosa; EN0422 P. aeruginosa G−): > 64 µg/mL; MIC (P. aeruginosa; EN0459 P. aeruginosa G− PKL 3699): > 64 µg/mL; MIC (P. aeruginosa; EN0460 P. aeruginosa G− PKL 3704): > 64 µg/mL; MIC (Enterobacter aerogenes): > 64 µg/mL; MIC (S. epidermidis [4]): 1 µg/mL (≈ 2.74 µM); MIC (Citrobacter sp.): > 64 µg/mL; MIC (S. typhimurium): > 64 µg/mL; MIC (A. Pittii/nosocomialis): > 64 µg/mL; MIC (K. oxytoca): > 64 µg/mL; MIC (K. pneumoniae; EN006 K. pneumoniae WT, ENABLE Primary MIC panel): > 64 µg/mL; MIC (K. pneumoniae; EN0010 K. pneumoniae, ENABLE L2C MIC panel (isogenic efflux pairs)): > 64 µg/mL; MIC (K. pneumoniae; EN0011 K. pneumoniae Efflux mut, ENABLE L2C MIC panel): > 64 µg/mL; MIC (A. baumanii; Acinetobacter baumannii, EN007 A. baumanii WT, ENABLE Primary MIC panel, read-out: MIC): > 64 µg/mL; MIC (A. baumanii; EN0016 A. baumanii, ENABLE L2C MIC panel): >64 µg/mL; MIC (A. baumanii; EN0017 A. baumanii Efflux mut, ENABLE L2C MIC panel): >64 µg/mL; CC50 at 48 h ([5]; HepG2, 48 hours, Table 1): 14 µM; CC50 at 48 h ([5]; HepG2, Table 5): 14 µM

Question: Which results are given for CCCCCCCCCC1CC(O)=C(C(=O)CCCC)C(=O)O1 (centres unmarked) [Ex. 8, 4-hydroxy-6-nonyl-3-pentanoyl-5,6-dihydro-2H-pyran-2-one]?
Answer: MIC ([1]; LMG15975, S. aureus (G+), Table 2, read-out: MIC (μg/ml) S. aureus): < 0.6 µg/mL; MIC [1, 7]: ≤ 1.9 µM; MIC [1, 8]: ≤ 0.6 µg/mL; MIC [1, 9]: ≤ 0.6 µg/mL; MIC (A. baumannii): 8 to 16 µg/mL (≈ 24.7 to 49.3 µM); MIC (Bacillus cereus): ≤ 1 µg/mL; MIC (M. frederiksbergense): ≤ 4 µg/mL; MIC (Mycobacterium smegmatis): ≤ 4 µg/mL; MIC [2, 10]: ≤0.1 µg/mL; MIC [2, 11]: ≤0.1 µg/mL; MIC ([2]; Staphylococcus aureus, S. aureus V321, mupirocin-resistant, read-out: MIC): ≤ 0.1 µg/mL; CC50 at 48 h ([5]; HepG2, 48 hours, Table 1): 36 µM

Question: Which MIC [1, 7] does the source give for CCCCCCCCCCC1CC(O)=C(C(=O)CC)C(=O)O1 (centres unmarked) [Ex. 10, 6-decyl-4-hydroxy-3-propionyl-5,6-dihydro-2H-pyran-2-one] here?
Answer: Its MIC is 1.3 to 2.6 µM.

Question: And the MIC [1, 8]?
Answer: The MIC was 0.4 to 0.8 µg/mL.

Question: What about the MIC (Bacillus cereus) of the same molecule?
Answer: The MIC was at most 1 µg/mL.

Question: And the MIC (M. frederiksbergense)?
Answer: Its MIC is at most 0.5 µg/mL.

Question: And the CC50 at 48 h (in vitro)?
Answer: Its CC50 at 48 h is 60 µM.

Question: For CCCCCCc1c(O)cc(CCCCC)oc1=O [pseudopyronine A], which antibacterial activities [6] is on record?
Answer: The antibacterial activities was “moderate to poor”.

Question: With CCCCCCCc1cc(O)c(CCCCCC)c(=O)o1 [pseudopyronine B] as the molecule, how does the antibacterial activities [6] read?
Answer: Its antibacterial activities is “moderate to poor”.

Question: For lachnellulic acid, which “activity against the Dutch Elm disease fungus” value (Dutch Elm disease fungus) is on record?
Answer: Its value is “active”.

Question: For podoblastin A, which “activity against the fungus Pyricularia oryziae” value (Pyricularia oryziae) is on record?
Answer: The value was “active”.
